# In ChEMBL document CHEMBL6078713, “Synthesis and mechanistic studies of 4-aminoquinoline-Isatin molecular hybrids and Schiff's bases as promising antimicrobial agents” (Eur J Med Chem, 2025):
# System: Enterococcus faecalis
# Assay: Antibacterial activity against Enterococcus faecalis assessed as inhibition of bacterial growth
# Format: functional
smiles,measurement,value
O=C1Nc2cc(Cl)c(F)cc2/C1=N\NC(=O)c1cc(-c2cccc(Br)c2)n[nH]1,MIC,8 µg/mL
